Assay results as given in ChEMBL document CHEMBL1130565, “Development of the new potent non-peptide gpIIb/IIIa antagonist NSL-95301 by utilizing combinatorial technique” (Bioorg Med Chem Lett, 1997).

Species: Homo sapiens
Experiment: In vitro collagen induced platelet aggregation inhibitory activity using human platelet rich plasma anti-coagulated with 0.38% trisodium citrate
Format: functional

N=C(N)c1ccc(C(=O)NCCC(=O)N2CCC(C(=O)O)CC2)cc1
IC50 (Homo sapiens, Plasma): 33 µM

CC(C)(C(=O)N1CCC(CC(=O)O)CC1)C(NC(=O)c1ccc(C(=N)N)cc1)c1ccccc1 (stereo in doubt; 18)
IC50: 0.19 µM

N=C(N)c1ccc(C(=O)N[C@@H](CC(=O)N2CCC(CC(=O)O)CC2)C(=O)OC2CCCCC2)cc1
IC50 (Homo sapiens, Plasma): 1.9 µM

N=C(N)c1ccc(C(=O)N[C@@H](CC(=O)N2CCC(CC(=O)O)CC2)C(=O)Oc2ccccc2)cc1
IC50 (Homo sapiens, Plasma): 4.1 µM

CCC(C(=O)N1CCC(CC(=O)O)CC1)C(NC(=O)c1ccc(C(=N)N)cc1)c1ccccc1 (stereo not drawn)
IC50 (Homo sapiens, Plasma): 16 µM

CC(C)(C(=O)N1CCC(CC(=O)O)CC1)C(NC(=O)c1ccc(C(=N)N)cc1)c1ccccc1 (single isomer, unassigned; (-))
IC50: 31 µM

CN(CC(=O)N1CCC(CC(=O)O)CC1)C(=O)c1ccc(CN=C(N)N)cc1
IC50 (Homo sapiens, Plasma): > 1000 µM

CN(CCC(=O)N1CCC(CC(=O)O)CC1)C(=O)c1ccc(C(=N)N)cc1
IC50 (Homo sapiens, Plasma): 6.5 µM

N=C(N)c1ccc(C(=O)NCC(Cc2ccc(O)cc2)C(=O)N2CCC(CC(=O)O)CC2)cc1 (stereo not drawn)
IC50 (Homo sapiens, Plasma): 0.94 µM

C[C@@H](CC(=O)N1CCC(CC(=O)O)CC1)NC(=O)c1ccc(C(=N)N)cc1
IC50 (Homo sapiens, Plasma): 5 µM

CC(C)[C@@H](CC(=O)N1CCC(CC(=O)O)CC1)NC(=O)c1ccc(C(=N)N)cc1
IC50 (Homo sapiens, Plasma): 9.2 µM

C[C@H](NC(=O)c1ccc(CN=C(N)N)cc1)C(=O)N1CCC(C(=O)O)CC1
IC50 (Homo sapiens, Plasma): 710 µM

CCCCC(CNC(=O)c1ccc(C(=N)N)cc1)C(=O)N1CCC(CC(=O)O)CC1 (stereo not drawn)
IC50 (Homo sapiens, Plasma): 3.8 µM

C[C@H](NC(=O)c1ccc(C(=N)N)cc1)C(=O)N1CCC(C(=O)O)CC1
IC50 (Homo sapiens, Plasma): 110 µM

N=C(N)c1ccc(C(=O)NCC(Cc2ccccc2)C(=O)N2CCC(CC(=O)O)CC2)cc1 (stereo not drawn)
IC50 (Homo sapiens, Plasma): 4.1 µM

N=C(N)Nc1ccc(C(=O)NCCC(=O)N2CCC(C(=O)O)CC2)cc1
IC50 (Homo sapiens, Plasma): 750 µM

CC(CNC(=O)c1ccc(C(=N)N)cc1)C(=O)N1CCC(CC(=O)O)CC1 (stereo not drawn)
IC50 (Homo sapiens, Plasma): 0.59 µM

N=C(N)c1ccc(C(=O)N[C@H](CC(=O)N2CCC(CC(=O)O)CC2)c2ccccc2)cc1
IC50 (Homo sapiens, Plasma): 5.2 µM

CC(C)(C(=O)N1CCC(CC(=O)O)CC1)C(NC(=O)c1ccc(C(=N)N)cc1)c1ccccc1 (single isomer, unassigned; (+))
IC50: 0.092 µM

N=C(N)c1ccc(C(=O)N2CCCC2CC(=O)N2CCC(CC(=O)O)CC2)cc1 (stereo not drawn)
IC50 (Homo sapiens, Plasma): 4.3 µM

CC(C)C(CNC(=O)c1ccc(C(=N)N)cc1)C(=O)N1CCC(CC(=O)O)CC1 (stereo not drawn)
IC50 (Homo sapiens, Plasma): 25 µM

CN(CC(=O)N1CCC(C(=O)O)CC1)C(=O)c1ccc(CN=C(N)N)cc1
IC50 (Homo sapiens, Plasma): 53 µM

CC(C)(CNC(=O)c1ccc(C(=N)N)cc1)C(=O)N1CCC(CC(=O)O)CC1
IC50 (Homo sapiens, Plasma): 0.57 µM

N=C(N)c1ccc(C(=O)NCCC(=O)N2CCC(OCC(=O)O)CC2)cc1
IC50 (Homo sapiens, Plasma): 18 µM

CN(CC(=O)N1CCC(CC(=O)O)CC1)C(=O)c1ccc(NC(=N)N)cc1
IC50 (Homo sapiens, Plasma): 750 µM

C[C@H](NC(=O)c1ccc(NC(=N)N)cc1)C(=O)N1CCC(C(=O)O)CC1
IC50 (Homo sapiens, Plasma): > 1000 µM

C[C@H](NC(=O)c1ccc(C(=N)N)cc1)C(=O)N1CCC(CC(=O)O)CC1
IC50 (Homo sapiens, Plasma): 30 µM

CN(CC(=O)N1CCC(C(=O)O)CC1)C(=O)c1ccc(NC(=N)N)cc1
IC50 (Homo sapiens, Plasma): 100 µM

CN(CC(=O)N1CCC(CC(=O)O)CC1)C(=O)c1ccc(C(=N)N)cc1
IC50 (Homo sapiens, Plasma): 7.5 µM

N=C(N)c1ccc(C(=O)N2CCCC(C(=O)N3CCC(CC(=O)O)CC3)C2)cc1 (stereo not drawn)
IC50 (Homo sapiens, Plasma): 25 µM

N=C(N)NCc1ccc(C(=O)NCCC(=O)N2CCC(C(=O)O)CC2)cc1
IC50 (Homo sapiens, Plasma): > 1000 µM

CC(C)C(C(=O)N1CCC(CC(=O)O)CC1)C(NC(=O)c1ccc(C(=N)N)cc1)c1ccccc1 (stereo not drawn)
IC50 (Homo sapiens, Plasma): 82 µM

CN(CC(=O)N1CCC(C(=O)O)CC1)C(=O)c1ccc(C(=N)N)cc1
IC50 (Homo sapiens, Plasma): 330 µM
